# Read-outs that look alike come from different tables or passages of the source.
# What was measured:
# PBMCs = assay: IL-6 and TNF-alpha secretion in PBMCs from three donors (ELISA); assay type: cell-based, human
# Protocol: EC50 values were determined for control and each drug candidate for IL-6 and TNF-alpha secretion. […] The cells were treated with TLR7 agonists for 24 hours in 7 doses. The conditioned media was removed for ELISA analyses for IL-6 and TNF-alpha, and cell survival determined by the XTT method according to the protocol from the supplier. […] Concentrations of IL-6 and TNF-alpha were determined by ELISA from R&D Systems using the Microsoft Excel Software. The results were analyzed in Graph Pad Prism in order to prepare dose-response curves, and for determination of EC50 values.
# CYP3A5 = CYP3A5 (Homo sapiens (Human), UniProt P20815); assay: Fluorescent High Throughput P450 assay, CYP3A5; assay type: biochemical; conditions: substrate BFC; read-out: CYP3A5 IC50 (Mean ± S.D.)
# Sequence of CYP3A5 (P20815 whole entry, looked up): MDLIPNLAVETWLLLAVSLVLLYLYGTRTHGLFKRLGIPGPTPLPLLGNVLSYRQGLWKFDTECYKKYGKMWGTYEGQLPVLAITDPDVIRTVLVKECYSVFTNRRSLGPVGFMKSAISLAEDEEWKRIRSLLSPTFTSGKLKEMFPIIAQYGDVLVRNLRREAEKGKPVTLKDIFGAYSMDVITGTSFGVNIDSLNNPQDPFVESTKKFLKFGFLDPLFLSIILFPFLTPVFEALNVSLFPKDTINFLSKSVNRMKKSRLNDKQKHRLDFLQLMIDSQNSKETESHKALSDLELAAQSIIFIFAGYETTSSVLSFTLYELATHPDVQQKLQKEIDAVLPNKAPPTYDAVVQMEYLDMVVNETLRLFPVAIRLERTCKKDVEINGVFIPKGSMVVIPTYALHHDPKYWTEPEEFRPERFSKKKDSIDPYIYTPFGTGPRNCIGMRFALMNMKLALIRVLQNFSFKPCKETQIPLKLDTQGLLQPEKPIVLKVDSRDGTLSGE
# Protocol: Inhibition of the P450 isoforms was measured in specific assays using specific substrates that become fluorescent upon CYP metabolism. Compounds, dissolved in ACN (acetonitrile) (CYP2E1, CYP2C8, CYP2B6, CYP3A5) or DMSO (all remaining isoforms), were tested in duplicate (n=2) in concentration-response curves (eight concentrations) in a 96-well plate containing incubation/NADPH regenerating buffer. Specific isoenzymes and substrates were added and incubated at 37° C. Reactions were terminated at different times, depending on the assays, and plates read on a Fluoroskan Ascent at the appropriate emission/excitation wavelengths. Concentration-response curves performed in duplicate for known inhibitors for each isoenzyme were tested in every assay as positive control.
# [1] = system: receptors associated with pain-related syndromes (e.g. adenosine and sodium channel); assay: Radioligand binding assay among 73 primary molecular targets; conditions: SC12 at fixed concentration of 30 microM
compound,measurement,setting,value
CCCCCCCCCCCC(=O)OCC(COP(=O)(O)OCCNC(=O)c1ccc(Cn2c(=O)[nH]c3c(N)nc(OCCOC)nc32)cc1)OC(=O)CCCCCCCCCCC (stereo not shown) [SC12],EC50,"PBMCs; D1, first experiments on three donors, read-out: EC50 values, IL-6 secretion",1440 nM
same,EC50,"PBMCs; D2, first experiments on three donors, read-out: EC50 values, IL-6 secretion",864 nM
same,EC50,"PBMCs; D3, first experiments on three donors, read-out: EC50 values, IL-6 secretion",2780 nM
same,EC50,"PBMCs; Donor 1, 24 hours, read-out: IL-6 secretion MC50",1440 nM
same,EC50,"PBMCs; Donor 1, 24 hours, read-out: TNFa secretion MC50",995 nM
same,EC50,"PBMCs; Donor 2, 24 hours, read-out: IL-6 secretion MC50",864 nM
same,EC50,"PBMCs; Donor 2, 24 hours, read-out: TNFa secretion MC50",275 nM
same,EC50,"PBMCs; Donor 3, 24 hours, read-out: IL-6 secretion MC50",2780 nM
same,EC50,"PBMCs; Donor 3, 24 hours, read-out: TNFa secretion MC50",121 nM
same,EC50,"PBMCs; average of three donors, read-out: IL-6 secretion Average EC50",1700 nM
same,EC50,"PBMCs; average of three donors, read-out: TNFa secretion Average EC50",464 nM
same,IC50,CYP3A5,10.5 ± 0.5 µM
same,Binding to receptors associated with pain-related syndromes,[1],did not bind
